Results reported in US10138229B2, “Heteroaromatic compounds as BTK inhibitors” (Boehringer Ingelheim International GmbH, priority 2012, dated 2018).

Target: full-length human His-tagged BTK (Homo sapiens (Human), UniProt Q06187)
Assay: BTK Assay (HTRF, Cisbio KinEASE-TK)
Assay type: biochemical
Details: 6 nM BTK, 30 uM ATP, 15 min preincubation
Description: An HTRF assay (Cisbio KinEASE-TK cat #62TKOPEC) was performed to quantitate the ability of test compounds to inhibit BTK mediated phosphorylation of substrate. Assays were assembled in 384 well plates where 6 nM of full-length human His-tagged BTK (Life Technologies cat # PV3587) and test compound at varying concentrations were preincubated for 15 minutes at 28° C. Then, 1 uM of TK substrate-biotin and 30 uM ATP were added and incubated for an additional 30 minutes at 28° C.

full-length human His-tagged BTK, sequence (Q06187 whole entry): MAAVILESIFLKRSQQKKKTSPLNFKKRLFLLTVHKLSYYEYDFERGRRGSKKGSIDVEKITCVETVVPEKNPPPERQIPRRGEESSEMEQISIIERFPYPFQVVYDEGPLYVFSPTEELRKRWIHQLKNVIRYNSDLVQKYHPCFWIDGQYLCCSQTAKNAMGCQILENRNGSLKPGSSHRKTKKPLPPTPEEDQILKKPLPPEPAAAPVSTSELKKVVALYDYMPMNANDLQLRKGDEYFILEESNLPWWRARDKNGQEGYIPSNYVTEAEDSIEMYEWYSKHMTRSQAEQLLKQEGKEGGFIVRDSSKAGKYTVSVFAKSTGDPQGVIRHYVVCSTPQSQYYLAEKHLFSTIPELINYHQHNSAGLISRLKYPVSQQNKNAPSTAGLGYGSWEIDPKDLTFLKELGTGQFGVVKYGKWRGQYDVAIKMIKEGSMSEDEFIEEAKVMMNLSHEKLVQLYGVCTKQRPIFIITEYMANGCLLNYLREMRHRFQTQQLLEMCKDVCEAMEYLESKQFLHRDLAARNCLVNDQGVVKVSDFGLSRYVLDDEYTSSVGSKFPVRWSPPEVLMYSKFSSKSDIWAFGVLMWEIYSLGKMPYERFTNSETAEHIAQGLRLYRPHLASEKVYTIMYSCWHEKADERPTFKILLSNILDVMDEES

SMILES	IC50 [nM]
C=CC(=O)N1CCC[C@H]1Cc1nc(-c2ccc(Oc3ccccc3)cc2)c(C(N)=O)s1 [Example 50]	3
C=CC(=O)N1CC2(CC(n3nc(-c4ccc(OC5CCOC5)cc4)c(C(N)=O)c3N)C2)C1 (stereo not drawn) [Example 134]	120
C=CC(=O)N1CCC[C@@H](n2cc(C(N)=O)c(-c3ccc(Oc4ccc(Cl)c(Cl)c4)cc3)n2)C1 [Example 69]	43
C=CC(=O)N1CC[C@]2(C1)C[C@H](n1nc(-c3ccc(OC(F)(F)F)cc3)c(C(N)=O)c1N)C2 [Example 162]	9.2
C=CC(=O)N1CCC[C@@H](n2cc(C(N)=O)c(-c3ccc(Oc4ccccc4)c(Cl)c3)n2)C1 [Example 24]	9.4
C=CC(=O)N1CC2(CC(n3nc(-c4ccc(OC(F)(F)F)cc4)c(C(N)=O)c3N)C2)C1 [Example 109]	24
CC#CC(=O)N1CC[C@]2(C1)C[C@H](n1nc(-c3ccc(OCC)cc3)c(C(N)=O)c1N)C2 [Example 167]	0.9
C=CC(=O)N1CCC[C@@H](n2cc(C(N)=O)c(-c3ccc(OCCOC)cc3)n2)C1 [Example 95]	1600
C=CC(=O)N1CCC[C@@H](n2cc(C(N)=O)c(-c3ccc(Oc4ccccc4)cc3)n2)C1 [Example 29]	3.2
C=CC(=O)N1CCC[C@H]1Cn1cc(C(N)=O)c(-c2ccc(Oc3ccccc3)cc2)n1 [Example 33]	9.7
CC#CC(=O)N1CCC2(CC1)CC(c1nc(-c3ccc(Oc4ccccc4)cc3)c(C(N)=O)s1)C2 [Example 85]	300
C=CC(=O)N1CCC[C@@H](n2cc(C(N)=O)c(-c3ccc(OCc4ccccc4)cc3)n2)C1 [Example 2]	33
C=CC(=O)N1CCC[C@@H](n2cc(C(N)=O)c(-c3ccc(Oc4ccccc4)c(F)c3)n2)C1 [Example 23]	10
C=CC(=O)N1CC[C@]2(C1)C[C@H](n1nc(-c3ccc(Oc4ccccc4)cc3)c(C(N)=O)c1N)C2 [Example 80]	0.93
C=CC(=O)N1CCC[C@@H](n2cc(C(N)=O)c(-c3ccc(Nc4nc5ccccc5o4)cc3)n2)C1 [Example 27]	300
CC#CC(=O)N1CC[C@]2(C1)C[C@@H](n1nc(-c3ccc(OCCC)cc3)c(C(N)=O)c1N)C2 [Example 127]	15
CC#CC(=O)N1CCC(n2cc(C(N)=O)c(-c3ccc(Oc4ccccc4)cc3)n2)CC1 [Example 56]	15
CN(C)C/C=C/C(=O)N1CCC[C@H]1Cn1cc(C(N)=O)c(-c2ccc(Oc3ccccc3)cc2)n1 [Example 36]	230
CC#CC(=O)N1CCC2(CC1)CC(n1nc(-c3ccc(Oc4ccccc4)cc3)c(C(N)=O)c1N)C2 [Example 83]	2.1
CC#CC(=O)N1CCC[C@@H](c2nc(-c3ccc(Oc4ccccc4)cc3)c(C(N)=O)s2)C1 [Example 52]	18
CC#CC(=O)N1CC2(CC(n3nc(-c4ccc(C(F)(F)F)c(F)c4)c(C(N)=O)c3N)C2)C1 [Example 141]	14
C=CC(=O)N1CC2(CC(n3nc(-c4ccc(O)cc4)c(C(N)=O)c3N)C2)C1 [Example 133]	8.4
C=CC(=O)N1CC[C@]2(C1)C[C@H](n1nc(-c3cccc(OC)c3)c(C(N)=O)c1N)C2 [Example 155]	7.3
C=CC(=O)N1CCCC(Cn2cc(C(N)=O)c(-c3ccc(Oc4ccccc4)cc3)n2)C1 (stereo not drawn) [Example 45]	10

SMILES	IC50 [nM]
C=CC(=O)N1CCC[C@@H](n2cc(C(N)=O)c(-c3ccc(NC(=O)c4cc5ccccc5n4C)c(OC)c3)n2)C1 [Example 25]	5.1
C=CC(=O)N1CCC[C@@H](n2cc(C(N)=O)c(-c3ccc(Cc4ccccc4)cc3)n2)C1 [Example 9]	14
C=CC(=O)N1CC[C@]2(C1)C[C@@H](n1nc(-c3ccc(Oc4ccccc4)nc3)c(C(N)=O)c1N)C2 [Example 114]	3.4
C=CC(=O)N1CCC[C@@H](c2nc(-c3ccc(Oc4ccccc4)cc3)c(C(N)=O)s2)C1 [Example 51]	1.7
C=CC(=O)N1CCC[C@@H](n2cc(C(N)=O)c(-c3ccc(Oc4ccc(C)cc4)cc3)n2)C1 [Example 71]	14
C=CC(=O)N1CCC2(CC1)CC(n1cc(C(N)=O)c(-c3ccc(Oc4ccccc4)cc3)n1)C2 [Example 86]	95
C=CC(=O)N1CC[C@]2(C1)C[C@@H](c1nc(-c3ccc(Oc4ccccc4)cc3)c(C(N)=O)s1)C2 [Example 79]	6.4
CN(C)C/C=C/C(=O)N1CC[C@]2(C1)C[C@H](n1cc(C(N)=O)c(-c3ccc(Oc4ccccc4)cc3)n1)C2 [Example 37]	38
CC#CC(=O)N1CC[C@]2(C1)C[C@H](n1nc(-c3ccc(Oc4ccccc4)cc3)c(C(N)=O)c1N)C2 [Example 91]	0.79
C=CC(=O)N1CC2(CC(c3nc(-c4ccc(Oc5ccccc5)cc4)c(C(N)=O)s3)C2)C1 [Example 57]	3.2
CC#CC(=O)N1CC[C@]2(C1)C[C@@H](n1nc(-c3ccc(Oc4ccccc4)cn3)c(C(N)=O)c1N)C2 [Example 118]	0.5
C=CC(=O)N1CCC[C@@H](n2cc(C(N)=O)c(-c3ccc(Oc4cccc(S(C)(=O)=O)c4)cc3)n2)C1 [Example 65]	330
C=CC(=O)N1CC[C@]2(C1)C[C@H](n1nc(-c3ccc(Oc4ccccn4)cc3)c(C(N)=O)c1N)C2 [Example 152]	1.5
C=CC(=O)N1CCC[C@@H](n2cc(C(N)=O)c(-c3ccc(NC(=O)Nc4cccc(C)c4)cc3)n2)C1 [Example 60]	41
C=CC(=O)N1CCC[C@@H](n2cc(C(N)=O)c(-c3ccc(Oc4ccc(Cl)c(Cl)c4)c(OC)c3)n2)C1 [Example 20]	30
CN(C)C/C=C/C(=O)N1CC[C@]2(C1)C[C@@H](n1nc(-c3ccc(Oc4ccccc4)cc3)c(C(N)=O)c1N)C2 [Example 98]	0.7
CC#CC(=O)N1CC[C@]2(C1)C[C@H](n1nc(-c3ccc(OCCC)cc3)c(C(N)=O)c1N)C2 [Example 140]	0.9
C=CC(=O)N1CC2(CC(n3nc(-c4ccc(C(F)(F)F)c(F)c4)c(C(N)=O)c3N)C2)C1 [Example 142]	29
NC(=O)c1c(-c2ccc(Oc3ccccc3)cc2)nn(C2CC3(C2)CN(C(=O)/C=C/CN2CCOCC2)C3)c1N [Example 77]	1.9
CC#CC(=O)N1CC[C@]2(C1)C[C@H](n1nc(-c3ccc(OC(C)C)cc3)c(C(N)=O)c1N)C2 [Example 168]	1.2
C=CC(=O)N1CC2(CC(n3nc(-c4ccc(Cl)c(C(F)(F)F)c4)c(C(N)=O)c3N)C2)C1 [Example 135]	26
CC#CC(=O)N1CC[C@]2(C1)C[C@H](n1nc(-c3ccc(OC4CC4)cc3)c(C(N)=O)c1N)C2 [Example 157]	2
C=CC(=O)NCCc1nc(-c2ccc(Oc3ccccc3)cc2)c(C(N)=O)s1 [Example 34]	21
CC#CC(=O)N1CC[C@]2(C1)C[C@H](n1nc(-c3ccc(C(F)(F)F)cc3)c(C(N)=O)c1N)C2 [Example 128]	0.9

SMILES	IC50 [nM]
C=CC(=O)N1CCC(n2cc(C(N)=O)c(-c3ccc(Oc4ccccc4)cc3)n2)CC1 [Example 55]	6.6
C=CC(=O)N1CCC[C@@H](n2cc(C(N)=O)c(-c3cccc(NS(C)(=O)=O)c3)n2)C1 [Example 17]	4800
C=CC(=O)N1CC2(CC(n3nc(-c4ccc(Oc5ccccc5)cn4)c(C(N)=O)c3N)C2)C1 [Example 103]	2.8
CC#CC(=O)N1CC2(CC(n3nc(-c4ccc(F)c(OCC(F)(F)F)c4)c(C(N)=O)c3N)C2)C1 [Example 149]	100
CC#CC(=O)N1CC2(CC(n3nc(-c4ccc(Oc5ccccc5)cn4)c(C(N)=O)c3N)C2)C1 [Example 110]	0.87
CC#CC(=O)N1CC2(CC(n3nc(-c4ccc(OCCC)c(F)c4)c(C(N)=O)c3N)C2)C1 [Example 138]	2.2
C=CC(=O)N1CC[C@]2(C1)C[C@@H](n1nc(-c3ccc(Oc4ccccc4)cn3)c(C(N)=O)c1N)C2 [Example 117]	1.1
C=CC(=O)N1CCC[C@@H](n2cc(C(N)=O)c(-c3ccc(Oc4ccc(OC)cc4)cc3)n2)C1 [Example 67]	38
C=CC(=O)N1CCC[C@@H](n2cc(C(N)=O)c(-c3ccc(OCc4ccccn4)c(Cl)c3)n2)C1 [Example 21]	98
C=CC(=O)N1CCC[C@@H](n2cc(C(N)=O)c(-c3ccc4occc4c3)n2)C1 [Example 16]	580
C=CC(=O)N1CCC[C@@H](n2cc(C(N)=O)c(-c3ccc(-n4nc(C)cc4C)cc3)n2)C1 [Example 14]	7800
C=CC(=O)N1CCC(Cn2cc(C(N)=O)c(-c3ccc(Oc4ccccc4)cc3)n2)C1 (stereo not drawn) [Example 42]	64
CC#CC(=O)N1CCC[C@H]1Cc1nc(-c2ccc(Oc3ccccc3)cc2)c(C(N)=O)s1 [Example 53]	14
C=CC(=O)N1CC[C@]2(C1)C[C@@H](n1nc(-c3ccc(OCCC)cc3)c(C(N)=O)c1N)C2 [Example 126]	28
C=CC(=O)N1CCC2(CC1)CC(n1nc(-c3ccc(Oc4ccccc4)cc3)c(C(N)=O)c1N)C2 [Example 82]	2
C=CC(=O)N1CC[C@]2(C1)C[C@H](n1nc(-c3ccc(OC)cc3)c(C(N)=O)c1N)C2 [Example 153]	2.3
CC#CC(=O)N1CC[C@]2(C1)C[C@@H](n1nc(-c3ccc(Oc4ccccc4)cc3)c(C(N)=O)c1N)C2 [Example 92]	0.89
C=CC(=O)NC1CC2(C1)CC(n1nc(-c3ccc(Oc4ccccc4)cc3)c(C(N)=O)c1N)C2 (stereo not drawn) [Example 97]	0.8
CC#CC(=O)N1CC[C@]2(C1)C[C@H](n1cc(C(N)=O)c(-c3ccc(Oc4ccccc4)cc3)n1)C2 [Example 38]	13
C=CC(=O)N1CC[C@]2(C1)C[C@H](n1nc(-c3ccc(C(F)(F)F)cc3)c(C(N)=O)c1N)C2 [Example 130]	6.4
C=CC(=O)N1CC2(CC(n3nc(-c4ccc(OCC5CC5)cc4)c(C(N)=O)c3N)C2)C1 [Example 104]	19
C=CC(=O)N1CCC2(CC(n3nc(-c4ccc(OCCC)cc4)c(C(N)=O)c3N)C2)C1 (single isomer, unassigned) [Example 125]	7.5
CC#CC(=O)N1CC2(CC(n3nc(-c4ccc(C(F)(F)F)cc4)c(C(N)=O)c3N)C2)C1 [Example 147]	9.2
C=CC(=O)N1CC2(CC(n3nc(-c4ccc(F)c(C(F)(F)F)c4)c(C(N)=O)c3N)C2)C1 [Example 144]	72
